# According to patent US5747506A, “Isoquinoline compounds, compositions containing them and their pharmaceutical uses” (Novartis AG, priority 1993, dated 1998):
# Read-outs that look alike come from different tables or passages of the source.
# Experiments:
# [1] = tested on: cardiovascular effects; experiment: Doppler aortic flow test in the rabbit; assay type: in vivo; details: hydrogen-oxalate salt
# Text: Thus in a series of experiments using the Doppler aortic flow test in the rabbit [J. Pharmacol. Meth.
# [2] = hemodynamics, plasma glucose and tolerability in conscious dogs; assay type: in vivo, dog; details: hydrogen-oxalate salt
# [3] = tested on: TNFα secretion, THP-1 cells; experiment: TEST C: Inhibition of TNFα Secretion (THP-1 cells, γ-interferon/LPS); assay type: cell-based; details: Homo sapiens, LPS, γ-interferon, 40 hours, hydrogen-oxalate salt
# Protocol: TEST C: Inhibition of TNFα Secretion
# 900 μl THP-1 cells (0.5 10^6 cells together with 100 U γ-interferon/0.9 ml) are pipetted into 24 well culture plates and followed by 100 μl test substance. After 3 hours at 37° C. in 5% CO2 /95% air, 10 μl LPS 5 μg/ml is added and the incubation continued for a further 40 hours. Appropriate controls are also included. The media are then removed and clarified by centrifugation at 1000 g for 10 min. 1.0 ml digitonin 0.01% is added to the wells to lyse the cells which are loosened by scraping with a rubber policeman and left at 4° C. for 10 min. Lactate dehydrogenase measurements are then performed immediately and the samples stored at […] until the other determinations can be performed. The assays are: IL-1β (medium), TNF-α (medium), and DNA (lysates). IL-1β, and TNF-α assays are determined using commercially available ELISA kits.
# The method of Kapuscinski et al Anal. Biochem. (83, 252-257 (1977) is used to assay DNA. 300 μl samples of cell lysate in 0.01% digitonin are mixed with 750 μl tris-HCl buffer pH 7.0 (containing 13.2 mM Na2 SO4), 300 μl H2 O and 150 μl DAPI (4',6-diamidino-2-phenylindole.2HCl) 2 μg/ml. The fluorescence is then measured at 372 nm (excitation) and 454 nm (emission) using a Perkin Elmer 3000 fluorimeter. The samples are read against a standard curve of calf thymus DNA (0.5 to 10 μg/ml) run at the same time. […]
# [4] = tested on: human PDE IV (neutrophils); experiment: TEST A: Human PDE Isoenzyme Inhibition Assay, type IV; assay type: biochemical
# Text: C2 H5 OH. For pharmacological experiments it should be diluted at least 1:10,000.]
# TEST A: Human PDE Isoenzyme Inhibition Assay
# All isoenzyme preparations are derived from human sources. Type III and IV preparations are obtained taking advantage of the predominance of type III isoenzymes in platelets and of type IV isoenzymes in neutrophils applying the following techniques:
# Neutrophils (type IV) and platelets (types II and III) are obtained from human blood and sonicated (Branson probe, 4×15 sec.). Human lung (types I and V) is obtained from patients undergoing surgery and homogenized using a Polytron homogenizer (two bursts of 30 sec).
# Isoenzyme preparations: PDE III and IV (substrate cAMP 1 μM) preparations consist of low-speed supernates of the platelet and neutrophil homogenates, respectively.
# [5] = tested on: human eosinophils; experiment: TEST B: Inhibition of Eosinophil Activation by fMLP (oxidative burst, chemiluminescence); assay type: cell-based; details: fMLP 1 μM, hydrogen-oxalate salt
# Protocol: TEST B: Inhibition of Eosinophil Activation by formyl-MetLeuPhe (fMLP)
# Purified human eosinophils (10^4 /well in 0.2 ml HBSS) are stimulated with fMLP (1 μM) in the presence of lucigenin (25 μM). Inhibition of the oxidative burst (measured as changes in chemiluminescence) is determined from dose response curves using the logistic equation.
# [6] = tested on: methacholine induced bronchoconstriction; experiment: TEST J: Suppression of Methacholine (MeCH) Induced Broncho-Constriction in the Rhesus Monkey; assay type: in vivo; details: hydrogen-oxalate salt
# Protocol: TEST J: Suppression of Methacholine (MeCH) Induced Broncho-Constriction in the Rhesus Monkey
# Male rhesus monkeys (body weight 10.3-13.2 kg) are anesthetized with ketamine (20 mg/kg i.m., initial) and maintained with thiopental (8 mg/kg/h i.v.) via an indwelling catheter in the left saphenous vein, throughout the experimental procedure. Animals are allowed to breathe spontaneously, and are placed in the left lateral incumbent position. The larynx, eppiglottis and pharynx are anesthetized (topical xylocaine) allowing introduction and placement of a cuffed 4.5 mm pediatric endotracheal tube.
# MeCH is administered as an aerosol (saline vehicle: aerosol generated by a nebulizer operated under an airflow of 6 l/min, mean particle size of 3.5 μm) with a 2 minute exposure, tidal breathing. All tests employ a 0.6 mg/ml solution or 2.5 mg/ml solution in the case of poor MeCH responders. MeCH bronchoconstrictor tests are spaced 30 min apart, with administration of test substance (in a lactose vehicle suspension, 1 mg/ml, 1 ml administered under bronchoscopic control, 1 cm above the carina) 15 min prior to MeCH challenge.
# Test substance is administered in a cumulative manner. Bronchodilator activity is estimated as the % inhibition of bronchoconstrictor response to MeCH on resistance.
# [7] = tested on: lymphocytes from the spleen of Balb/c and CBA mice; experiment: TEST L: Murine Mixed Lymphocyte Reaction; assay type: cell-based; details: Mus musculus, 120 h, thymidine incorporation, 5 days, hydrogen-oxalate salt
# Protocol: TEST L: Murine Mixed Lymphocyte Reaction
# Ca. 0.5×10^6 lymphocytes from the spleen of female (8-10 weeks) Balb/c mice are incubated for 5 days in 0.2 ml cell growth medium with ca. 0.5×10^6 lymphocytes from the spleen of female (8-10 weeks) CBA mice. Test substance is added to the medium at various concentrations. Activity is assessed by ability to suppress proliferation associated DNA synthesis as determined by incorporation of radiolabelled thymidine.
# [8] = tested on: bacterial endotoxin (LPS) induced airways obstruction and lethality; experiment: TEST E: Bacterial Endotoxin [LPS] Induced Lethality in the Guinea Pig; assay type: in vivo; details: 100/μg/kg/min.; hydrogen-oxalate salt
# Protocol: TEST E: Bacterial Endotoxin [LPS] Induced Lethality in the Guinea Pig
# Guinea-pigs are anesthetized by intraperitoneal injection of sodium phenobarbitone (100 mg/kg.) supplemented with sodium pentobarbitone (30 mg/kg) and paralyzed by intramuscular injection of gallamine (10 mg/kg). Animals are ventilated (8 ml/kg, 1 Hz) with a mixture of air and oxygen (40:60, v/v) via a tracheal cannula. Ventilation is monitored at the trachea by a pneumotachograph connected to a differential pressure transducer. […] Blood pressure and heart rate are recorded from the carotid artery using a pressure transducer and a cannula is introduced into the right jugular vein to allow intravenous infusion of test substance min prior to and concomitantly with infusion of LPS at a constant rate (3.0 ml/hr to give 10 mg/kg/hr) from an infusion pump. The left jugular vein is cannulated for administration of (±) propranolol (1 mg/kg) injected as an intravenous bolus. […] Experimental data is stored continuously and, on termination of an experiment, experimental traces or processed data are plotted.
# Infusion of [±propanolol] ensures consistent susceptibility to LPS. In anesthetized animals pre-treated with [±] propanalol, infusion of LPS in the above model induces progressive airway obstruction. Death consequential to endotoxin shock usually occurs within ca. 1 hr of terminating LPS infusion.
# [9] = stock solution of the hydrogen-oxalate salt; assay type: physicochemical; details: 10% Tween in 80% abs. C2H5OH
# Protocol: [All experiments described below are suitably done using the hydrogen-oxalate salt of the test compound, e.g. compound of example 1. In the case of the example 1 compound a stable 30 mM stock solution of the hydrogen-oxalate salt may be prepared with 10% Tween in 80% abs. C2 H5 OH. For pharmacological experiments it should be diluted at least 1:10,000.]
# [10] = tested on: PDE IV; experiment: inhibition of PDE IV added to plasma after administration to conscious dogs; assay type: in vivo; details: up to 0.3 mg/kg i.v. or 0.6 mg/kg p.o., hydrogen-oxalate salt
# [11] = tested on: SRS-A induced bronchoconstriction; experiment: TEST H experiment 2: Suppression of SRS-A Induced Bronchoconstriction (tracheal instillation, inhaled ovalbumin); assay type: in vivo, guinea pig (Dunkin-Hartley); details: Cavia porcellus, i.t., hydrogen-oxalate salt
# Protocol: TEST H: Suppression of SRS-A Induced Bronchoconstriction
# (§1) Guinea pigs (Dunkin-Hartley, male, 400-600 g) are anesthethized with phenobarbital (100 mg/kg i.p.) and pentobarbital (30 mg/kg i.p.) and paralyzed with gallamine (100 mg/kg i.m.) Animals are ventilated via a tracheal cannula (8 ml/kg, 1 Hz) with a mixture of air and oxygen (45:55 v/v). Blood pressure and heart rate are recorded at the carotid artery. Ventilation is monitored by a Fleisch flow transducer in line with the inspiratory circuit. When making measurements of flow, coincident pressure changes in the thorax are monitored directly via an intrathoracic trochar, permitting display of differential pressure relative to the trachea. From this information in relation to flow and differential pressure, resistance [R1 ] and compliance [Cdyn ] are calculated using a digital respiratory analyzer for each respiratory cycle.
# Test animals are passively sensitized 24 hrs. prior to testing by administration of homologous anti-ovalbumin antiserum (1 ml i.v.). […] Allergen challenge is achieved by administration of ovalbumin (OA) and the resultant bronchoconstrictor response is used as a functional read-out of SRS-A activity.
# 2) In the second, animals are challenged with OA (1.0 or 1.8 mg/ml inhaled over 60 breaths) and the effect of test compound, administered at varying dosage directly into the lung by tracheal instillation, is measured.
# [12] = tested on: SRS-A induced bronchoconstriction; experiment: TEST H experiment 1: Suppression of SRS-A Induced Bronchoconstriction (i.v. infusion); assay type: in vivo, guinea pig (Dunkin-Hartley); details: FPL 55712 10 mg/kg i.v.
# Protocol: as §1, with “TEST H: Suppression of SRS-A Induced Bronchoconstriction Guinea” for “Guinea”, “cycle. Test animals are passively sensitized 24 hrs. prior to testing by administration of homologous anti-ovalbumin antiserum (1 ml i.v.). […] Allergen challenge is achieved by administration of ovalbumin (OA) and the resultant bronchoconstrictor response is used as a functional read-out of SRS-A activity. […]” for “cycle.”
# [13] = tested on: SRS-A; experiment: TEST D: Inhibition of SRS-A Production (ovalbumin challenge); assay type: in vivo, guinea-pig; details: 10 mg/kg i.v. 1 minute prior to challenge
# Protocol: TEST D: Inhibition of SRS-A Production Guinea-pigs are passively sensitized 24 hrs. prior to testing by i.v. administration of 1 ml homologous anti-ovalbumin antiserum. Prior to antigen challenge test animals are pre-treated with 0.32 mg/kg propanol i.v. (inhibition of endogenous catecholamines), 3.2 mg/kg, i.v. mepyramine (H1 receptor antagonism) and 3.2 mg/kg, i.v. indomethacin (inhibition of cyclo-oxygenase). Allergen challenge is effected by administration of 32 μg/kg, ovalbumin i.v. and the resultant constrictor response on airways resistance used as a functional read out of SRS-A activity. Separate test groups receive 10 mg/kg, i.v. FPL 55712 (an LTD4 receptor antagonist) 1 minute prior to challenge or test substance at varying dosage, i.v. by infusion, beginning 16 minutes prior to challenge.
# [14] = up to 0.3 mg/kg i.v. or 0.6 mg/kg p.o.
structure (smiles),measurement,setting,value
"CCc1cc2cc(OCCO)c(OC)cc2c(-c2cc(OC(C)C)cc(OC(C)C)c2)n1 [Example 1, 1-(3,5-diisopropoxyphenyl)-3-ethyl-6-(2-hydroxyethoxy)-7-methoxy-isoauinoline]",heart rate (rabbit),[1]; of the order of 1 mg/kg,only slight decrease in heart rate
same,cardiovascular side effects,[1]; up to the order of 0.3 mg/kg,no cardiovascular side effects
same,tolerability,[2]; all dosages,generally well tolerated
same,change in heart rate,[2]; [14],no or only minimal change
same,change in mean arterial pressure,[2]; [14],no or only minimal change
same,change in plasma glucose concentrations,[2]; [14],no or only minimal change
same,IC50,[3],~100 nM
same,IC50,"[4]; TEST A, 1 μM [3H]-cyclic AMP substrate, hydrogen-oxalate salt",2.9 ± 1.2 nM
same,fold greater activity in inhibiting the type IV isoenzyme than other isoenzyme preparations tested,"[4]; type IV vs other isoenzyme preparations, hydrogen oxalate salt",at least 180 fold
same,IC50,[5],60 ± 30 nM
same,ED20,"[6]; Macaca mulatta, inhaled or nasal, MeCH aerosol, test substance in lactose suspension",0.0414 ± 0.0099 µg/kg
same,potency less than that of Albuterol (TEST J),[6]; times less potent than Albuterol,ca. 3.5 ×
same,IC50,[7],12 ± 9 nM
same,lethality (TEST E),[8],no animals dying
same,protection (TEST E),[8],COMPLETE PROTECTION
same,stable stock solution,[9],30 mM
same,inhibition of PDE IV added to plasma,[10],substantial and long-lasting inhibition
same,ED50,"[11]; ovalbumin 1 mg/ml, read-out: ED50 vs. ovalbumin @1 mg/ml",5 µg/kg
same,ED50,"[11]; ovalbumin 1.8 mg/ml, read-out: ED50 vs. ovalbumin @1.8 mg/ml",50 µg/kg
CCCc1c(OCC(O)COc2ccc3c(=O)cc(C(=O)O)oc3c2CCC)ccc(C(C)=O)c1O (stereo not drawn) [FPL 55712],bronchoconstrictor effect of OA (experiment 1),[12],abolished
same,effect on bronchoconstriction (TEST D),[13],abolition of bronchoconstriction
